This note sets out measurements from publication PMC9225712, “Rational design of biodegradable sulphonamide candidates treating septicaemia by synergistic dual inhibition of COX-2/PGE2 axis and DHPS enzyme” (Journal of Enzyme Inhibition and Medicinal Chemistry, 2022).

In test [1] the test system is Staphylococcus aureus (RCMB 0100183). In words: Inhibition zone, agar cup diffusion. As to conditions: RCMB0100183, 24 h, read-out: inhibition zones (IZ) S. aureus.
Test [2] relates to Staphylococcus epidermidis (RCMB 0100183). Nature of the test: Inhibition zone, agar cup diffusion. As to conditions: RCMB0100183, 24 h, read-out: inhibition zones (IZ) S. epidermidis.
For test [3], the system named is Streptococcus mutans (RCMB 0100172). In words: Inhibition zone, agar cup diffusion. Particulars: RCMB0100172, 24 h, read-out: inhibition zones (IZ) S. mutans.
The test system of test [4] is Bacillus subtilis (RCMB 0100162). In words: Inhibition zone, agar cup diffusion. As to conditions: RCMB0100162, 24 h, read-out: inhibition zones (IZ) B. subtillis.
In a further test the target is T1, ovine COX-1 (Ovis aries, UniProt P05979).
T1 construct: purchased Cayman Chemicals Inc. 560131
T1 sequence (P05979 25-600): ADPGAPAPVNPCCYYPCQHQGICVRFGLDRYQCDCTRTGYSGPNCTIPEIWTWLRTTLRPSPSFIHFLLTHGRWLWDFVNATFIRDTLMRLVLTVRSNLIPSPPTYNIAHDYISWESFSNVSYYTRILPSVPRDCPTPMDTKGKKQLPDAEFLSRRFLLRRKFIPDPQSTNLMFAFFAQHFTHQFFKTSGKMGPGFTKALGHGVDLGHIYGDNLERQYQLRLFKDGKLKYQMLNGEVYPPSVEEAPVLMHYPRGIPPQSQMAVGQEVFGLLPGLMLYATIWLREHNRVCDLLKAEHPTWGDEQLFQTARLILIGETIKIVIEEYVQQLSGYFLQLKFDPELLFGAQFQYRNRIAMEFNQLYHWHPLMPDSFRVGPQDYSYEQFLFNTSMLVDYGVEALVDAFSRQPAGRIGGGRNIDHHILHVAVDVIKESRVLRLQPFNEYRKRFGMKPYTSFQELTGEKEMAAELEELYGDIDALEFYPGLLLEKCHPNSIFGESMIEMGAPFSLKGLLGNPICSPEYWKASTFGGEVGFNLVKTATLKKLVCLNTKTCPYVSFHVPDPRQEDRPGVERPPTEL
In words: In vitro COX-1 enzymatic assay (Cayman kit 560131). The test is classed as biochemical. Particulars: Mean ± SEM of triplicate determinations.

Test [5] concerns Salmonella typhi (RCMB 0100104). Nature of the test: Inhibition zone, agar cup diffusion. Format: cell-based. As to conditions: Salmonella enterica, 24 h, read-out: inhibition zones (IZ) S. typhi.
Test [6] relates to Shigella dysenteriae (RCMB 0100542). Nature of the test: Inhibition zone, agar cup diffusion. Format: cell-based. As to conditions: RCMB0100542, 24 h, read-out: inhibition zones (IZ) S. dysenteriae.
Test [7] relates to Pseudomonas aeruginosa (RCMB 0100243). Nature of the test: Inhibition zone, agar cup diffusion. As to conditions: RCMB0100243, 24 h, read-out: inhibition zones (IZ) P.aeruginosa.
For test [8], the system named is Escherichia coli (RCMB 010052). Nature of the test: Inhibition zone, agar cup diffusion. Particulars: RCMB010052, 24 h, read-out: inhibition zones (IZ) E.coli.
Test [9] has as its system Proteus vulgaris (RCMB 010085). In words: Inhibition zone, agar cup diffusion. Particulars: RCMB010085, 24 h, read-out: inhibition zones (IZ) P. vulgaris.
A further test concerns the target T2, human recombinant COX-2 (Homo sapiens, UniProt P35354).
T2 sequence (P35354 18-604): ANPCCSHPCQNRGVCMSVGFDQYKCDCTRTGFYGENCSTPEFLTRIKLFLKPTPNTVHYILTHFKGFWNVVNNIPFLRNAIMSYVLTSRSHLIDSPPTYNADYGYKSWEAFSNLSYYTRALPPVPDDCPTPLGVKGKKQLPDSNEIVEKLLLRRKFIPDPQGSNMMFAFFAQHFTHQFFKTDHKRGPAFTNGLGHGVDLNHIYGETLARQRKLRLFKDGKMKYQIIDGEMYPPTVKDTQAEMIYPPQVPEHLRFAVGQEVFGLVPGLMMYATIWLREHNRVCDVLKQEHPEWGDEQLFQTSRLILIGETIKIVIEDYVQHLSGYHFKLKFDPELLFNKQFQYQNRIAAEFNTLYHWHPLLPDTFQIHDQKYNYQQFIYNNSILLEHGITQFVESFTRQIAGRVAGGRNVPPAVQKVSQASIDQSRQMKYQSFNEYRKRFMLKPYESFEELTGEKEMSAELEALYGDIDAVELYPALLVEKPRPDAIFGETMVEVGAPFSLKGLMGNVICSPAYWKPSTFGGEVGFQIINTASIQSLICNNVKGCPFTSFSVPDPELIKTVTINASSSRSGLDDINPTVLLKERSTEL
In words: In vitro COX-2 enzymatic assay (Cayman kit 560131). As to conditions: for SI COX-1/COX-2: COX-2 selectivity index: COX-1 IC50/COX-2 IC50.

Regarding `CC1(C)S[C@@H]2[C@H](NC(=O)[C@H](N)c3ccccc3)C(=O)N2[C@H]1C(=O)O` [Ampicillin, reference compound], the zone of inhibition at 1000 µg/mL worked out at 30 mm in test [1], 32 mm in [2], 30 mm in test [3] and 15 mm in test [4].
`CCCCNC(=O)c1cc(/N=N/c2ccc(S(N)(=O)=O)cc2)ccc1O` [Compound 5a, N-Butyl-2-hydroxy-5-((4-sulfamoylphenyl)diazenyl) benzamide]: the figures for the IC50 on ovine COX-1 and at human recombinant COX-2 were 9.6 ± 0.06 µM and 0.11 ± 0.0003 µM, respectively. Further, the zone of inhibition at 1000 µg/mL in test [5] worked out at 15 mm; in [6] it was 25 mm; in test [1], 26 mm; in test [2], 33 mm; in [3], 29 mm; in test [4] it was 17 mm. Besides, the zone of inhibition at 1000 µg/mL in test [7] was 14 mm; in [8], 14 mm; in test [9] it was 18 mm. Further, at human recombinant COX-2, the “SI COX-1/COX-2” value is 87.3.
For `CCCCNC(=O)c1cc(/N=N/c2ccc(S(=O)(=O)Nc3ncccn3)cc2)ccc1O` [Compound 5c, N-Butyl-2-hydroxy-5-((4-(N-(pyrimidin-2-yl)sulfamoyl)phenyl)diazenyl) benzamide], the IC50 is 11.2 ± 0.08 µM on ovine COX-1 and 0.08 ± 0.0003 µM at human recombinant COX-2. The zone of inhibition at 1000 µg/mL in [5] came out at 13 mm; in test [6], 25 mm; in test [1] it was 29 mm; in test [2], 30 mm; in test [3] it was 31 mm; in test [4] it was 19 mm. For the same compound, the zone of inhibition at 1000 µg/mL in test [7] is 16 mm; in test [8], 16 mm; in test [9], 17 mm. In addition, the “SI COX-1/COX-2” value at human recombinant COX-2 stood at 145.5.
On to `CCCCNC(=O)c1cc(/N=N/c2ccc(S(=O)(=O)Nc3nccc(C)n3)cc2)ccc1O` [Compound 5d, N-Butyl-2-hydroxy-5-((4-(N-(4-methylpyrimidin-2yl)sulfamoyl)phenyl)diazenyl) benzamide], for which the concentration for half-maximal inhibition (IC50) came to 10.6 ± 0.08 µM against ovine COX-1 and 0.09 ± 0.001 µM at human recombinant COX-2. Also, the zone of inhibition at 1000 µg/mL amounted to 16 mm in [5]; 26 mm in test [6]; 28 mm in test [1]; 32 mm in test [2]; 28 mm in test [3]; 20 mm in test [4]. The zone of inhibition at 1000 µg/mL in test [7] stood at 18 mm; in test [8], 16 mm; in test [9] it was 19 mm. The “SI COX-1/COX-2” value on human recombinant COX-2 is 116.5.
With `NS(=O)(=O)c1ccc(/N=N/c2ccc(O)c(C(=O)NCc3ccccc3)c2)cc1` [Compound 5e, N-Benzyl-2-hydroxy-5-((4-sulfamoylphenyl)diazenyl) benzamide], the half-inhibitory concentration (IC50) was determined as 8.3 ± 0.06 µM at ovine COX-1 and 0.12 ± 0.003 µM at human recombinant COX-2. For the same compound, the zone of inhibition at 1000 µg/mL in [5] was 16 mm; in test [6], 25 mm; in [1], 32 mm; in test [2], 35 mm; in test [3], 30 mm; in test [4], 16 mm. For the same compound, the zone of inhibition at 1000 µg/mL in [7] stood at 18 mm; in [8], 16 mm; in test [9], 21 mm. Also, the “SI COX-1/COX-2” value at human recombinant COX-2 was found to be 69.2.
As for `C[C@H]1COc2c(N3CCN(C)CC3)c(F)cc3c(=O)c(C(=O)O)cn1c23` [Levofloxacin, levofloxacin, reference compound], the zone of inhibition at 1000 µg/mL worked out at 11 mm in test [5]; 20 mm in test [6]; 8 mm in test [7]; 11 mm in [8]; 15 mm in [9].

Broadly, the IC50 is the point on the concentration scale where inhibition reaches its midpoint.
